This is an account of results in US9365522B2, “Pyrazole amide derivative” (AMGEN INC., priority 2015, dated 2016).

Each structure is given as a SMILES string.

For the experiment, the target named is T1, human RORγ-LBD (Homo sapiens, UniProt P51449).
T1 construct: made in house; host or cells: E. coli (BL-21)
T1 sequence (P51449 262-518): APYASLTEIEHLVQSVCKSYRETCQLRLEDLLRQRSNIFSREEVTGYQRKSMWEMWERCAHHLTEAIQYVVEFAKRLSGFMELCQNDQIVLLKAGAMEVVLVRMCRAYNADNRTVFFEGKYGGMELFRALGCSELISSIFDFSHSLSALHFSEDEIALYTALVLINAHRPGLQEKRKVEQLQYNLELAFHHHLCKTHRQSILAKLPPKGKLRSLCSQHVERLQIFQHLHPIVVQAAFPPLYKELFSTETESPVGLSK
Briefly: ROR gamma coactivator peptide recruitment Alphascreen assay (RORγ-LBD binding to GRIP1 coactivator peptide). The format is biochemical. To be noted: 5 nM human RORγ-LBD, 30 nM 7-β-hydroxycholesterol, 50 nM biotinylated GRIP1 coactivator peptide, overnight incubation at room temperature; read-out: result (pIC50, RORγ coactivator peptide recruitment Alphascreen assay) (converted). Put shortly:
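His/Flag-tagged human RORγ-LBD (aa 262-518, E. coli-expressed, 5 nM) with agonist 7-β-hydroxycholesterol (30 nM) and biotinylated GRIP1 LXXLL peptide (50 nM) in HEPES pH 7.4 buffer, 2.5% DMSO. Compound 1-in-2 dilutions; Alphascreen bead signal read after overnight incubation at room temperature; pIC50 calculated.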
Consider `CC1(CN(CCc2c(Cl)cncc2Cl)C(=O)c2cnn([C@H]3CC[C@](C)(C(=O)O)CC3)c2C(F)(F)F)CCCC1` [Example 591, trans-4-(4-((2-(3,5-dichloro-4-pyridinyl)ethyl)((1-methylcyclopentyl)methyl)carbamoyl)-5-(trifluoromethyl)-1H-pyrazol-1-yl)-1-methylcyclohexanecarboxylic acid], for which the IC50 was 2.09 nM. For `C[C@]1(C(=O)O)CC[C@H](n2ncc(C(=O)N(CC(=O)c3c(Cl)cncc3Cl)CC3CCCC3)c2C(F)(F)F)CC1` [Example 592, trans-4-(4-((cyclopentylmethyl)(2-(3,5-dichloro-4-pyridinyl)-2-oxoethyl)carbamoyl)-5-(trifluoromethyl)-1H-pyrazol-1-yl)-1-methylcyclohexanecarboxylic acid], the IC50 was 6.76 nM. As to `C[C@]1(C(=O)O)CC[C@H](n2ncc(C(=O)N(CC(=O)c3c(Cl)cncc3Cl)CC3(F)CC3)c2C(F)(F)F)CC1` [Example 593, trans-4-(4-((2-(3,5-dichloro-4-pyridinyl)-2-oxoethyl)((1-fluorocyclopropyl)methyl)carbamoyl)-5-(trifluoromethyl)-1H-pyrazol-1-yl)-1-methylcyclohexanecarboxylic acid], the IC50 was 33.1 nM.

With `C[C@]1(C(=O)O)CC[C@H](n2ncc(C(=O)N(CC(=O)c3c(Cl)cncc3Cl)CC3CC(F)(F)C3)c2C(F)(F)F)CC1` [Example 594, trans-4-(4-((2-(3,5-dichloro-4-pyridinyl)-2-oxoethyl)((3,3-difluorocyclobutyl)methyl)carbamoyl)-5-(trifluoromethyl)-1H-pyrazol-1-yl)-1-methylcyclohexanecarboxylic acid], the IC50 is 74.1 nM. In the case of `CC1(C)CC(CN(CC(=O)c2c(F)cccc2Cl)C(=O)c2cnn([C@H]3CC[C@](C)(C(=O)O)CC3)c2C(F)(F)F)C1` [Example 595, trans-4-(4-((2-(2-chloro-6-fluorophenyl)-2-oxoethyl)((3,3-dimethylcyclobutyl)methyl)carbamoyl)-5-(trifluoromethyl)-1H-pyrazol-1-yl)-1-methylcyclohexanecarboxylic acid], the IC50 is 5.62 nM.

Turning to `CC1(C)CC(CN(CC(=O)c2c(F)cccc2Cl)C(=O)c2cnn([C@H]3CC[C@@H](C(=O)O)CC3)c2C(F)(F)F)C1` [Example 596, cis-4-(4-((2-(2-chloro-6-fluorophenyl)-2-oxoethyl)((3,3-dimethylcyclobutyl)methyl)carbamoyl)-5-(trifluoromethyl)-1H-pyrazol-1-yl)cyclohexanecarboxylic acid], the IC50 was 151 nM. As for `CC1(C)CC(CN(CC(=O)c2c(F)cccc2F)C(=O)c2cnn([C@H]3CC[C@@H](C(=O)O)CC3)c2C(F)(F)F)C1` [Example 597, cis-4-(4-((2-(2,6-difluorophenyl)-2-oxoethyl)((3,3-dimethylcyclobutyl)methyl)carbamoyl)-5-(trifluoromethyl)-1H-pyrazol-1-yl)cyclohexanecarboxylic acid], the IC50 is 2400 nM. For the molecule `CC1(C)CC(CN(CC(=O)c2c(F)cccc2F)C(=O)c2cnn([C@H]3CC[C@](C)(C(=O)O)CC3)c2C(F)(F)F)C1` [Example 598, trans-4-(4-((2-(2,6-difluorophenyl)-2-oxoethyl)((3,3-dimethylcyclobutyl)methyl)carbamoyl)-5-(trifluoromethyl)-1H-pyrazol-1-yl)-1-methylcyclohexanecarboxylic acid], the IC50 was 115 nM.

With `CC1(C)CC(N(CC(=O)c2c(Cl)cccc2Cl)C(=O)c2cnn([C@H]3CC[C@](C)(C(=O)O)CC3)c2C(F)(F)F)C1` [Example 599, trans-4-(4-((2-(2,6-dichlorophenyl)-2-oxoethyl)(3,3-dimethylcyclobutyl)carbamoyl)-5-(trifluoromethyl)-1H-pyrazol-1-yl)-1-methylcyclohexanecarboxylic acid], the IC50 is 13.8 nM. To `CC1(C)CC(N(CC(=O)c2c(Cl)cccc2Cl)C(=O)c2cnn([C@H]3CC[C@@H](C(=O)O)CC3)c2C(F)(F)F)C1` [Example 600, cis-4-(4-((2-(2,6-dichlorophenyl)-2-oxoethyl)(3,3-dimethylcyclobutyl)carbamoyl)-5-(trifluoromethyl)-1H-pyrazol-1-yl)cyclohexanecarboxylic acid] belongs 794 nM; to `CC1(C)C[C@H](CN(CC(=O)c2c(Cl)cccc2Cl)C(=O)c2cnn([C@H]3CC[C@](C)(C(=O)O)CC3)c2C(F)(F)F)O1` [Example 601, trans-4-(4-((2-(2,6-dichlorophenyl)-2-oxoethyl)(((2R)-4,4-dimethyl-2-oxetanyl)methyl)carbamoyl)-5-(trifluoromethyl)-1H-pyrazol-1-yl)-1-methylcyclohexanecarboxylic acid], 42.7 nM; to `COc1cccc(F)c1C(=O)CN(CC1CC(C)(C)C1)C(=O)c1cnn([C@H]2CC[C@](C)(C(=O)O)CC2)c1C(F)(F)F` [Example 602, trans-4-(4-(((3,3-dimethylcyclobutyl)methyl)(2-(2-fluoro-6-methoxyphenyl)-2-oxoethyl)carbamoyl)-5-(trifluoromethyl)-1H-pyrazol-1-yl)-1-methylcyclohexanecarboxylic acid], 174 nM.

`CC1(C)CC(CN(CC(=O)c2ccccc2C#N)C(=O)c2cnn([C@H]3CC[C@](C)(C(=O)O)CC3)c2C(F)(F)F)C1` [Example 604, trans-4-(4-((2-(2-cyanophenyl)-2-oxoethyl)((3,3-dimethylcyclobutyl)methyl)carbamoyl)-5-(trifluoromethyl)-1H-pyrazol-1-yl)-1-methylcyclohexanecarboxylic acid]: the IC50 is 6610 nM. Turning to `CC(C)(C)C[C@H](CO)N(CCc1c(Cl)cccc1Cl)C(=O)c1cnn([C@H]2CC[C@](C)(C(=O)O)CC2)c1C(F)(F)F` [Example 605, trans-4-(4-((2-(2,6-dichlorophenyl)ethyl)((2R)-1-hydroxy-4,4-dimethyl-2-pentanyl)carbamoyl)-5-(trifluoromethyl)-1H-pyrazol-1-yl)-1-methylcyclohexanecarboxylic acid], the IC50 is 151 nM. As to `C[C@]1(C(=O)O)CC[C@H](n2ncc(C(=O)N(CCc3c(Cl)cncc3Cl)CC3(F)CCCC3)c2C(F)(F)F)CC1` [Example 606, trans-4-(4-((2-(3,5-dichloro-4-pyridinyl)ethyl)((1-fluorocyclopentyl)methyl)carbamoyl)-5-(trifluoromethyl)-1H-pyrazol-1-yl)-1-methylcyclohexanecarboxylic acid], the IC50 is 4.47 nM. Under `COc1cccc(F)c1C(=O)CN(C(=O)c1cnn([C@H]2CC[C@](C)(C(=O)O)CC2)c1C(F)(F)F)C1CCC(C)(C)CC1` [Example 607, trans-4-(4-((4,4-dimethylcyclohexyl)(2-(2-fluoro-6-methoxyphenyl)-2-oxoethyl)carbamoyl)-5-(trifluoromethyl)-1H-pyrazol-1-yl)-1-methylcyclohexanecarboxylic acid] stands 105 nM. Turning to `COc1cccc(F)c1C(=O)CN(CC1(F)CCCC1)C(=O)c1cnn([C@H]2CC[C@](C)(C(=O)O)CC2)c1C(F)(F)F` [Example 608, trans-4-(4-(((1-fluorocyclopentyl)methyl)(2-(2-fluoro-6-methoxyphenyl)-2-oxoethyl)carbamoyl)-5-(trifluoromethyl)-1H-pyrazol-1-yl)-1-methylcyclohexanecarboxylic acid], the IC50 was 123 nM.

As to `CC1(C)[C@@H]2C[C@H](N(CC(=O)c3c(Cl)cccc3Cl)C(=O)c3cnn([C@H]4CC[C@H](C(=O)O)CC4)c3C(F)(F)F)C[C@@H]21` [Example 610, cis-4-(4-((2-(2,6-dichlorophenyl)-2-oxoethyl)((1R,3r,5S)-6,6-dimethylbicyclo[3.1.0]hex-3-yl)carbamoyl)-5-(trifluoromethyl)-1H-pyrazol-1-yl)cyclohexanecarboxylic acid], the IC50 was 12.3 nM. Regarding `C[C@]1(C(=O)O)CC[C@H](n2ncc(C(=O)N(CC(=O)c3c(Cl)cccc3Cl)CC3(F)CC3)c2C(F)(F)F)CC1` [Example 611, trans-4-(4-((2-(2,6-dichlorophenyl)-2-oxoethyl)((1-fluorocyclopropyl)methyl)carbamoyl)-5-(trifluoromethyl)-1H-pyrazol-1-yl)-1-methylcyclohexanecarboxylic acid], the IC50 was 6.03 nM. Take `C[C@]12CC[C@](CN(CC(=O)c3c(Cl)cccc3Cl)C(=O)c3cnn([C@H]4CC[C@](C)(C(=O)O)CC4)c3C(F)(F)F)(CC1)C2` [Example 612, trans-4-(4-((2-(2,6-dichlorophenyl)-2-oxoethyl)(((1r,4r)-4-methylbicyclo[2.2.1]hept-1-yl)methyl)carbamoyl)-5-(trifluoromethyl)-1H-pyrazol-1-yl)-1-methylcyclohexanecarboxylic acid]: the IC50 was 39.8 nM. To `O=C(CN(C(=O)c1cnn([C@H]2CC[C@@H](C(=O)O)CC2)c1C(F)(F)F)C1CC2(CCC2)C1)c1c(Cl)cccc1Cl` [Example 613, cis-4-(4-((2-(2,6-dichlorophenyl)-2-oxoethyl)(spiro[3.3]hept-2-yl)carbamoyl)-5-(trifluoromethyl)-1H-pyrazol-1-yl)cyclohexanecarboxylic acid] belongs 110 nM. To `C[C@H]1CC[C@H](CN(CC(=O)c2c(Cl)cncc2Cl)C(=O)c2cnn([C@H]3CC[C@](C)(C(=O)O)CC3)c2C(F)(F)F)O1` [Example 614, trans-4-(4-((2-(3,5-dichloro-4-pyridinyl)-2-oxoethyl)(((2R,5R)-5-methyltetrahydro-2-furanyl)methyl)carbamoyl)-5-(trifluoromethyl)-1H-pyrazol-1-yl)-1-methylcyclohexanecarboxylic acid] belongs 53.7 nM.
